Laboratory results published in ChEMBL document CHEMBL5506049, “Discovery of Novel Small-Molecule-Based Potential PD-L1/EGFR Dual Inhibitors with High Druggability for Glioblastoma Immunotherapy” (J Med Chem, 2024).
Activity calls are given as the source filed them. The calls are words filed in the database; no cut-off is given here.

Tests used:
[1] = Toxicity in C57BL/6 mouse xenografted with […] GL261 cells assessed as cell necrosis in lung at 100 mg/kg, IG treated for 21 days by hematoxylin-eosin staining based microscopy assay; type: organism-based; conditions: in vivo, po, 504 h, time 21 day
[2] = Ratio of brain to plasma concentration in Sprague-Dawley rat at 5 mg/kg, iv measured after 20 mins; type: ADME, organism-based
[3] = tested on: U-87MG ATCC; assay: Effect on total ERK1/2 level in human U-87 MG cells at 0.25 to 2 uM incubated for 48 hrs by Western blot analysis; type: functional, cell-based; conditions: dose 0.25-2 µM
[4] = tested on: Glioblastoma cell line; assay: Antitumor immunity against glioblastoma bearing C57BL/6 mouse model assessed as tumor infiltrating lymphocytes by measuring increase in CD3+CD4+T cells at 100 mg/kg, IG (reference value: 0.91%); type: functional
[5] = AUC (0 to t) in Sprague-Dawley rat at 4 mg/kg, iv measured upto 72 hrs by (LC-MS)/MS analysis; type: ADME, organism-based; conditions: in vivo
[6] = MRT (0 to t) in Sprague-Dawley rat at 20 mg/kg, po measured upto 72 hrs by (LC-MS)/MS analysis; type: ADME, organism-based; conditions: in vivo
[7] = tested on: U-87 MG; assay: cells; conditions: Homo sapiens, 72 h
Description: Antiproliferative activity against human U-87 MG cells incubated for 72 hrs by MTT assay

[8] = tested on: U-87 MG; assay: Induction of cell cycle arrest in human U-87 MG cells assessed as accumulation of cells at G0/G1 phase at 0.5 uM incubated for 48 hrs by flow cytometry (reference value: 60.51%); type: functional, U-87MG ATCC
[9] = tested on: U-87 MG; assay: Induction of cell cycle arrest in human U-87 MG cells assessed as decrease in accumulation of cells at S phase at 2 uM incubated for 48 hrs by flow cytometry (reference value: 30.36%); type: functional, U-87MG ATCC; parameters: scale not given: the % may be the effect or the level left
[10] = tested on: U-87 MG; assay: In vitro immunoregulatory effect in IFN-gamma stimulated human U-87 MG cells co-cultured with PHA-P stimulated with human Jurkat T cell assessed as cytotoxicity by measuring cell viability incubated for 48 hrs by CCK-8 assay relative to control; type: functional, cell-based; conditions: U-87MG ATCC, dose 0.0625-0.5 µM
[11] = Cmax in Sprague-Dawley rat at 20 mg/kg, po measured upto 72 hrs by (LC-MS)/MS analysis; type: ADME, organism-based; conditions: in vivo
[12] = tested on: Glioblastoma cell line; assay: Antitumor immunity against glioblastoma bearing C57BL/6 mouse model assessed as tumor infiltrating lymphocytes by measuring increase in CD3+CD8+T cells at 100 mg/kg, IG (reference value: 3.44%); type: functional
[13] = cells; conditions: GL261, 72 h
Description: Antiproliferative activity against human GL261 cells incubated for 72 hrs by MTT assay

[14] = Toxicity in C57BL/6 mouse xenografted with […] GL261 cells assessed as cell necrosis in liver at 100 mg/kg, IG treated for 21 days by hematoxylin-eosin staining based microscopy assay; type: organism-based; conditions: in vivo, po, 504 h, time 21 day
[15] = Tmax in Sprague-Dawley rat at 4 mg/kg, iv measured upto 72 hrs by (LC-MS)/MS analysis; type: ADME, organism-based; conditions: in vivo
[16] = Toxicity in C57BL/6 mouse xenografted with […] GL261 cells assessed as cell necrosis in spleen at 100 mg/kg, IG treated for 21 days by hematoxylin-eosin staining based microscopy assay; type: organism-based; conditions: in vivo, po, 504 h, time 21 day

BPR [2]: 10%
AUC(0-t) at 72 h [5]: 2830 ng·h/mL
MRT last at 72 h [6]: 17.5 h
IC50 [7]: 770 nM
Cmax [11]: 255 ng/mL
IC50 [13]: 1190 nM
Tmax [15]: 2.4 min
SMILES: COc1cc2ncnc(Nc3cccc(Cl)c3F)c2cc1OCCCCNCc1c(OC)cc(OCc2cccc(-c3ccccc3)c2C)cc1OC
Activity [1]: Non-Toxic
Activity [3]: inactive
Activity [4]: 3.74%
Activity [8]: 63.57%
Activity [9]: 16.72%
Activity [10]: Dose-Dependent Effect
Activity [12]: 14.6%
Activity [14]: Non-Toxic
Activity [16]: Non-Toxic
